Measurements: PMC5056396, “Hexokinase I N-terminal based peptide prevents the VDAC1-SOD1 G93A interaction and re-establishes ALS cell viability” (Scientific Reports, 2016)

What was measured:
[1] = system: VDAC1-SOD1 G93A interaction; assay: In vitro VDAC1-SOD1 G93A binding assay after pre-incubation with HK1 or peptide (western blot, densitometry); design: species or system human; conditions: for reduction of SOD1 G93A in VDAC1-bound fraction: 6.25 μM SOD1 G93A, n = 3
From the text: It is well known that HKs bind to VDAC1 in physiological conditions. We hypothesized that the available area for interaction with soluble proteins is a limited, exposed portion of the transmembrane pore VDAC1. […] For this reason, we repeated the VDAC1-SOD1 G93A binding assay, adding increasing concentrations of HK1. […] The reduction corresponds to the increase of HK1 in VDAC1-bound fraction, and it is proportional to the HK1 concentrations added in the assay (Fig. 3A).
In order to evaluate the NHK1 ability to interfere with VDAC1-SOD1 G93A interaction, a binding assay was performed. Increasing concentrations of NHK1 were added to immobilized-VDAC1, before SOD1 G93A addition. […] In fact, a 20-fold smaller concentration of peptide was used to obtain a result similar to that obtained by using the whole HK1 in the previous experiment (see Fig. 3A).
Recombinant VDAC1 was immobilized onto Ni-NTA Magnetic Agarose Beads (Qiagen) by exploiting its 6xHis-tag, according with manufacture’s protocol. For each experiment, a large excess of VDAC1 (30 μM) were incubated with 50 μL of beads suspension in Interaction Buffer (IB) (300 mM NaCl, 50 mM NaH2PO4, 20 mM imidazole, pH 8.0) to saturate all sites. Beads were collected using the magnet-based system DynaMag-2 (Life Technologies) and washed twice in Wash Buffer (300 mM NaCl, 50 mM NaH2PO4, 20 mM imidazole, 0.05% Tween-20, pH 6.3) to remove any excess of VDAC1. Beads-immobilized VDAC1 were incubated with 6.25 μM SOD1 WT or G93A, for 1 h at RT, under constant shaking, in 100 μL of IB. The assay was also performed by pre-incubating immobilized-VDAC1 for an extra 1 h with increasing concentration of purified human HK1 (0, 100, 200 μM) or NHK1 peptide (0, 5, 10, 25 μM), before SOD1 G93A addition. Beads were recovered using Dyna-Mag2 system and VDAC1-complexes were eluted from beads using 50 μL of Elution Buffer (300 mM NaCl, 50 mM NaH2PO4, 300 mM imidazole, pH 3.5). Any protein in VDAC1-bound and -unbound fractions was evaluated by western blot. Three independent experiments were performed for each condition tested.

[2] = system: human VDAC1 reconstituted into PLB; assay: VDAC1 channel conductance in planar lipid bilayer (PLB); type: biochemical; conditions: for effect on single channel VDAC1 conductance: +25 mV, 0.2 μM SOD1 proteins or 15 μM peptide; for effect on voltage-dependence of VDAC1, triangular voltage ramps: symmetric 1 M KCl, ramps 0 to ±50 mV
From the text: Purified VDAC1 was reconstituted into a planar phospholipid bilayer (PLB) and its channel conductance was monitored before and after addition of SOD1 proteins, on cis or trans side of the membrane. […] Moreover, the effect of SOD1 proteins on the voltage-dependence of VDAC1 was monitored by triangular voltage ramps from 0 to ±50 mV. […] The current linearly follows the voltage applied up to about ±25 mV, where VDAC1 decreases its channel conductance through step-like transitions, remaining in low-conducting states.
Under standard experimental condition (1 M KCl and an applied potential of +25 mV) the VDAC1 channel was mainly in low-conducting closed states. […] The effect of NHK1 on the channel conductance is even more evident by plotting the amplitude values obtained in the current traces as a function of the number of events. While for VDAC1 alone the amplitude values appear as a main peak corresponding to the closed states (Fig. 4B), the presence of NHK1 caused a different distribution of events: an additional, different peak corresponding to the open state was visible, together with the closed states peak (Fig. 4C). […] The effect of NHK1 on the voltage-dependence of VDAC1 was monitored by triangular voltage ramps. […] In this experiment, indeed, VDAC1 completely loose, very precociously (already at ±15 mV applied), its ability to linearly respond to the applied voltage: a continuous switch from open to closed states was observed, especially at positive potentials. […] Upon NHK1 incubation, VDAC1 current transitions at positive voltages are very noisy and pass through different sub-conductance states (Fig. 4F).
Purified VDAC1 was reconstituted into a Planar Lipid Bilayer (PLB) apparatus (Warner Instruments, Hamden, CT, USA), previously described. Bilayers were prepared using asolectin (Sigma) dissolved in decane (Sigma) containing 1% chloroform (Sigma) across a 200 μm hole in a derlin cuvette (Warner Instruments). Experiments were performed in 1 M KCl, 10 mM Hepes, pH 7.0[40][46]. Control experiments using empty membrane and/or detergents were performed to avoid activity in any of the above solutions. Data were acquired using a Bilayer Clamp amplifier (Warner Instruments) at 100 μs/point, filtered at 200 Hz and analyzed offline using Clampfit 10.4 program set (Axon Instruments, Union City, CA, USA). Single channel analysis of VDAC1 was performed in presence or not of 0.2 μM of SOD1 WT or G93A, 15 μM NHK1 or ScNHK1 peptide.

NSC34-SOD1G93A cells = assay: Mitochondrial membrane potential (ΔΨm) by flow cytometry; type: cell-based, mouse; conditions: TMRM
Experimental: To evaluate the NHK1 influence on mitochondrial functionality, mitochondrial membrane potential variation (ΔΨm) was assayed in the presence of NHK1 peptide or HK1. ΔΨm is related to the ATP production by oxidative phosphorylation; therefore, it is considered an indication of good mitochondrial and cellular health. Using mitochondria-targeted fluorescent probes, we estimated in flow cytometry the rate of mitochondrial depolarization. NSC34-SOD1G93A cells shown a high level of depolarized mitochondria compared to NSC34-SOD1WT. […] Similarly to NHK1 peptide, the expression of the whole HK1 reduced the depolarized mitochondria of about 15% (Fig. 7C).
ΔΨm was measured using tetramethyl-rhodamine methyl ester (TMRM) or Rhodamine 123 (RH123) (Molecular Probes) according to the excitation/emission wavelength of the transfection reporter or of the transfected fluorescent protein used. Both probes accumulates in active mitochondria due to their positive charge, whereby the reduction of ΔΨm leads to the release of fluorescent probes. Transfected NSC34-SOD1WT and NSC34-SOD1G93A cells were washed with PBS and incubated for 30 min at 37 °C with Krebs Ringer Buffered Saline supplemented with either 200 nM TMRM or 0.1 μg/mL RH123 and 20 μM Verapamil (as a multi drug-resistant pump inhibitor) (Sigma). Cells were then harvested and immediately analyzed by flow cytometry. Cells were excited by an air-cooled argon 488 nm laser, reading the GFP fluorescence of HK1-GFP or RH123 fluorescence in FL1 log mode; TMRM and mtDsRED used as transfection reporter of NHK1 peptide were read on FL3 log mode. Only viable cells detected by reading the scattering indicated as FSC and SSC, were considered for our analysis. The threshold physiological value of ΔΨm was estimated by using cells exposed to 1 μM of the uncoupling agent FCCP as a negative control. Data reported are representative for three sets of independent experiments, each performed at least in triplicate and based on 20.000 events for each group. Data were statistical analyzed by chi-square test. A p < 0,001 was taken as significant.

Sequence	effect on SOD1 G93A in VDAC1-bound fraction ([1]; scramble control, same assay)	effect on single channel VDAC1 conductance ([2]; 1 M KCl)	effect on voltage-dependence of VDAC1, triangular voltage ramps [2]	partial recovery of physiological ΔΨm (NSC34-SOD1G93A cells; NSC34-SOD1G93A expressing scramble peptide)	reduction of SOD1 G93A in VDAC1-bound fraction ([1]; 10 μM peptide pre-incubated 1 h) [%]	reduction of SOD1 G93A in VDAC1-bound fraction ([1]; 25 μM peptide pre-incubated 1 h) [%]	negative membrane potential at which regions of decreased slope already appear (I-V plot) ([2]; 1 M KCl, upon peptide incubation) [mV]	reduction of depolarized mitochondria (NSC34-SOD1G93A cells; NSC34-SOD1G93A expressing peptide, n = 3) [%]
FAQLTIALAYY [ScNHK1, scramble peptide (…) synthetized and used as control, reference compound]	No similar effect	No influence on the electrophysiological activity	no difference was found	not	–	–	–	–
IAAQLLAYYFT [NHK1, peptide corresponding to residues 2–12 (N-terminal region) of human HK1 protein (…)]	–	induced several fast and reversible events of VDAC1 low-conducting closed states	strongly affected the channel voltage-dependence of VDAC1	–	40	80	−10	20
